Drawing on ChEMBL document CHEMBL1146790, “Structural variations in keto-glutamines for improved inhibition against hepatitis A virus 3C proteinase” (Bioorg Med Chem Lett, 2004), this text covers inhibition for three compounds.

This assay relates to 3C proteinase (Hepatitis A virus). As to the kind of experiment: Reversible inhibitory activity against Protease at a concentration 100 uM. The following applies: Hepatovirus A.
`COC(=O)c1nnn(CC(=O)[C@H](CCC(=O)N(C)C)NC(=O)[C@H](C)NC(=O)[C@H](C)NC(=O)[C@H](CC(C)C)NC(C)=O)c1C(=O)OC`: the inhibition (as a rule, the relative decrease from the control value, in per cent) was 9%.

In turn, `CC(=O)N[C@@H](CC(C)C)C(=O)N[C@@H](C)C(=O)N[C@@H](C)C(=O)N[C@@H](CCC(=O)N(C)C)C(=O)Cn1nnc(C(=O)O)c1C(=O)O` came in with an inhibition of 1%.

As for `COC(=O)c1nnn(CC(=O)[C@H](C[C@@H]2CCNC2=O)NC(=O)[C@H](C)NC(=O)[C@H](C)NC(=O)[C@H](CC(C)C)NC(C)=O)c1C(=O)OC`, the inhibition came to 14%.
